Experimental data as given in ChEMBL document CHEMBL2157893, “A potent and orally active antagonist (SM-406/AT-406) of multiple inhibitor of apoptosis proteins (IAPs) in clinical development for cancer treatment” (J Med Chem, 2011).

Legend:
[1] = biological target: T1, Baculoviral IAP repeat-containing protein 2 (Homo sapiens, UniProt Q13490)
[2] = biological target: T1, Baculoviral IAP repeat-containing protein 2; experiment: Binding affinity to human cIAP1 BIR3 domain expressed in Escherichia coli BL21(DE3) assessed as dissociation constant after 2 to 3 hrs by fluorescence polarization assay
[3] = biological target: E3 ubiquitin-protein ligase XIAP (Homo sapiens, UniProt P98170); experiment: Binding affinity to His6-tagged human XIAP BIR3 domain expressed in Escherichia coli BL21(DE3) assessed as dissociation constant after 2 to 3 hrs by fluorescence polarization assay
[4] = test system: Rattus norvegicus; experiment: AUC (0 to t) in Sprague-Dawley rat at 25 mg/kg, po; type: ADME, organism-based, Plasma; design: dose 25 mg/kg, route oral; conditions: in vivo
[5] = test system: Cynomolgus monkey; experiment: Half life in cynomolgus monkey at 5 mg/kg, po; type: ADME, organism-based, Macaca fascicularis; design: dose 5 mg/kg, route oral; conditions: in vivo
[6] = test system: Rattus norvegicus; experiment: Half life in Sprague-Dawley rat at 25 mg/kg, po; type: ADME, organism-based; design: dose 25 mg/kg, route oral; conditions: in vivo
[7] = test system: Canis familiaris; experiment: AUC (0 to t) in beagle dog at 10 mg/kg, po; type: ADME, organism-based, Canis lupus familiaris, Plasma; design: dose 10 mg/kg, route oral; conditions: in vivo
[8] = test system: Canis familiaris; experiment: AUC (0 to t) in beagle dog at 5 mg/kg, iv; type: ADME, organism-based, Canis lupus familiaris, Plasma; design: dose 5 mg/kg, route intravenous; conditions: in vivo
[9] = test system: Cynomolgus monkey; experiment: Oral bioavailability in cynomolgus monkey at 5 mg/kg; type: ADME, organism-based, Macaca fascicularis; conditions: in vivo
[10] = test system: Rattus norvegicus; experiment: Oral bioavailability in Sprague-Dawley rat at 25 mg/kg; type: ADME, organism-based; conditions: in vivo
[11] = test system: Cynomolgus monkey; experiment: AUC (0 to t) in cynomolgus monkey at 2.5 mg/kg, iv; type: ADME, organism-based, Macaca fascicularis, Plasma; design: dose 2.5 mg/kg, route intravenous; conditions: in vivo
[12] = test system: Mus musculus; experiment: AUC (0 to t) in mouse at 10 mg/kg, iv; type: ADME, organism-based, Plasma; design: dose 10 mg/kg, route intravenous; conditions: in vivo
[13] = test system: Mus musculus; experiment: Oral bioavailability in mouse at 30 mg/kg; type: ADME, organism-based; conditions: in vivo
[14] = test system: Cynomolgus monkey; experiment: Half life in cynomolgus monkey at 2.5 mg/kg, iv; type: ADME, organism-based, Macaca fascicularis; design: dose 2.5 mg/kg, route intravenous; conditions: in vivo
[15] = test system: Cynomolgus monkey; experiment: AUC (0 to t) in cynomolgus monkey at 5 mg/kg, po; type: ADME, organism-based, Macaca fascicularis, Plasma; design: dose 5 mg/kg, route oral; conditions: in vivo
[16] = test system: Mus musculus; experiment: Half life in mouse at 30 mg/kg, po; type: ADME, organism-based; design: dose 30 mg/kg, route oral; conditions: in vivo
[17] = test system: Canis familiaris; experiment: Half life in beagle dog at 5 mg/kg, iv; type: ADME, organism-based, Canis lupus familiaris; design: dose 5 mg/kg, route intravenous; conditions: in vivo
[18] = test system: Mus musculus; experiment: Half life in mouse at 10 mg/kg, iv; type: ADME, organism-based; design: dose 10 mg/kg, route intravenous; conditions: in vivo
[19] = test system: Canis familiaris; experiment: Oral bioavailability in beagle dog at 10 mg/kg; type: ADME, organism-based, Canis lupus familiaris; conditions: in vivo
[20] = test system: Rattus norvegicus; experiment: Half life in Sprague-Dawley rat at 5 mg/kg, iv; type: ADME, organism-based; design: dose 5 mg/kg, route intravenous; conditions: in vivo
[21] = test system: Mus musculus; experiment: AUC (0 to t) in mouse at 30 mg/kg, po; type: ADME, organism-based, Plasma; design: dose 30 mg/kg, route oral; conditions: in vivo
[22] = test system: Canis familiaris; experiment: Half life in beagle dog at 10 mg/kg, po; type: ADME, organism-based, Canis lupus familiaris; design: dose 10 mg/kg, route oral; conditions: in vivo

T1 sequence (Q13490 whole entry, the tested form may be a part): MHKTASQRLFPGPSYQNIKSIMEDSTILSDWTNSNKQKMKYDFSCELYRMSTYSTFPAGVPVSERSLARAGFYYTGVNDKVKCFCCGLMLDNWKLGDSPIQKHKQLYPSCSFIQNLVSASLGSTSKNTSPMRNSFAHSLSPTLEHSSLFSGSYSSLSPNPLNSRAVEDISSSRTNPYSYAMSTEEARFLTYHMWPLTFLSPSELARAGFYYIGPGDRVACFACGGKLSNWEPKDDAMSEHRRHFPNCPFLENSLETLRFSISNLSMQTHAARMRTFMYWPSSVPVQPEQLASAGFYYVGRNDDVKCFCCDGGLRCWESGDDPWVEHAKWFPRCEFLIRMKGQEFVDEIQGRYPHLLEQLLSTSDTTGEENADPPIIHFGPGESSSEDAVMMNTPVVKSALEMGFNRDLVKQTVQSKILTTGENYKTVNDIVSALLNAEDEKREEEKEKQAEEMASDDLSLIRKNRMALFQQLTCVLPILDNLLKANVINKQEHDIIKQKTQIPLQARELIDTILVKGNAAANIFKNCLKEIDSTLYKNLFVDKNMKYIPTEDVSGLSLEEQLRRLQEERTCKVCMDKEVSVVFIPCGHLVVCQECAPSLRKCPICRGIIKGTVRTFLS
Chain of E3 ubiquitin-protein ligase XIAP (P98170 whole entry, the tested form may be a part): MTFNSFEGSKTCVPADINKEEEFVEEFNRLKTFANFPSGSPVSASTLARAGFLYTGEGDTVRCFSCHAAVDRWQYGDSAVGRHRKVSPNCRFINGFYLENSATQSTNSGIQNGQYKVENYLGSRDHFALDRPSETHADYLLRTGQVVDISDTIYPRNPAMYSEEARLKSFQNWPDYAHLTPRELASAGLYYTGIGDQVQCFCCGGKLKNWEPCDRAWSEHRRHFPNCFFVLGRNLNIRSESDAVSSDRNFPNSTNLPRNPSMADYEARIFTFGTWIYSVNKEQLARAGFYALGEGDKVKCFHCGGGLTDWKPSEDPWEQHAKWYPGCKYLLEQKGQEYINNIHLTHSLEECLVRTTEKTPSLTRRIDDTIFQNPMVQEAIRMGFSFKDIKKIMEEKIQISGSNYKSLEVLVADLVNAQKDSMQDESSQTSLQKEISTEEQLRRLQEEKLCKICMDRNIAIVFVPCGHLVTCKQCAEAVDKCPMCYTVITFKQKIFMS

CN[C@@H](C)C(=O)N[C@H]1CN(C(=O)CC(C)C)CC[C@H]2CC[C@@H](C(=O)N[C@@H](c3ccccc3)c3cn(CCCCCCCCCCNC(=O)CCCCCNC(=O)CCCC[C@@H]4SC[C@@H]5NC(=O)N[C@@H]54)nn3)N2C1=O
Ki [1]: < 1 nM

CN[C@@H](C)C(=O)N[C@H]1CN(C(=O)CC(C)C)CC[C@H]2CC[C@@H](C(=O)N[C@@H](c3ccccc3)c3cn(CCCCCCCCCCNC(=O)c4ccc(-c5c6ccc(=O)cc-6oc6cc(O)ccc56)c(C(=O)O)c4)nn3)N2C1=O
Kd [2]: 0.7 nM
Kd [3]: 4.4 nM

CN[C@@H](C)C(=O)N[C@H]1CN(C(=O)CC(C)C)CC[C@H]2CC[C@@H](C(=O)NC(c3ccccc3)c3ccccc3)N2C1=O.Cl
AUCt [4]: 2.3 µg·h/mL
t1/2 [5]: 5.4 h
t1/2 [6]: 1.8 h
AUCt [7]: 90.3 µg·h/mL
AUCt [8]: 81.6 µg·h/mL
F [9]: 42%
F [10]: 45%
AUCt [11]: 17.9 µg·h/mL
AUCt [12]: 3.8 µg·h/mL
F [13]: 38%
t1/2 [14]: 6.3 h
AUCt [15]: 13.5 µg·h/mL
t1/2 [16]: 2.3 h
t1/2 [17]: 16.3 h
t1/2 [18]: 3 h
F [19]: 55%
t1/2 [20]: 1.4 h
AUCt [21]: 4.3 µg·h/mL
t1/2 [22]: 27.1 h
